“And” between values parts separate entries of the source, which are not always exact repeats. Equal entries are not always repeated.
Experiments:
22Rv1-CDK7-D97N cells = experiment: Growth assay (SRB), 22Rv1 CDK7-D97N knock-in pool; type: cell-based, human; conditions: 22Rv1 CDK7 D99N
Method: (§1) To determine the IC50 of drug treatments on growth, cells were seeded in 96-well culture plates. Two days after seeding, the cells were treated with increasing concentrations of drugs and incubated for 4 days. Cell number was determined using the SRB assay (Skehan et al, [1990]), and IC50 values were calculated using non-linear regression curve fitting in GraphPad Prism v10. For all other growth experiments, cells were seeded into 96-well plates, and appropriate drugs were added 2 days after seeding. Cells were then incubated in an IncuCyte Zoom live-cell imager, with cell confluency measured every 6 h. Cell doubling times were determined by non-linear curve fitting (exponential growth equation) in GraphPad Prism v10.
Alt-R^TM S.p. Cas9 nuclease V3, Alt-R CRISPR-Cas9 crRNA, TracrRNA and the donor templates were obtained from Integrated DNA Technologies. […] Cells were treated with 0.7 µM of Alt-R HDR Enhancer V2 to improve HRD efficiency. Sequences of the CRISPRs in the crRNA and the donor templates are shown in the Reagents and tools table. Donor templates were designed to include non-coding substitutions to aid genome DNA PCR for identifying knock-in events and to facilitate cloning; these substitutions are noted in the Reagents and tools table.

MCF7 cells = experiment: Growth assay (SRB), MCF7; type: cell-based, human; conditions: for IC50: 4 days, SRB; for % Growth: biological reps
Method: as §1

SMILES: CC(C)c1cnn2c(NCc3ccccc3-n3cccn3)nc(OC3CCCNC3)nc12 (centres unmarked) [LDC4297]
- % Growth (22Rv1-CDK7-D97N cells; Log10 Conc. (nM) 0.09): 99.08% and 97.65%
- % Growth (22Rv1-CDK7-D97N cells; Log10 Conc. (nM) 0.69): 98.24% and 92.35%
- % Growth (22Rv1-CDK7-D97N cells; Log10 Conc. (nM) 1.29): 97.25% and 79.61%
- % Growth (22Rv1-CDK7-D97N cells; Log10 Conc. (nM) 2.49): 79.12% and 58.88%
- % Growth (22Rv1-CDK7-D97N cells; Log10 Conc. (nM) 3.10): 40.19% and 24.40%
- % Growth (22Rv1-CDK7-D97N cells; Log10 Conc. (nM) 4.30): -8.93% and -12.96%
- % Growth (22Rv1-CDK7-D97N cells; Log10 Conc. (nM) -0.52): 101.69% and 97.12%
- IC50 (MCF7 cells): 7.3 nM
- % Growth (MCF7 cells; Log10 Conc. (nM) 0.09, 4 days): 91.12% and 94.99% and 92.39%
- % Growth (MCF7 cells; Log10 Conc. (nM) 0.69, 4 days): 52.29% and 66.02% and 70.05%
- % Growth (MCF7 cells; Log10 Conc. (nM) 1.29, 4 days): 18.87% and 28.85% and 28.07%
- % Growth (MCF7 cells; Log10 Conc. (nM) 2.49, 4 days): 9.82% and 18.59% and 16.86%
- % Growth (MCF7 cells; Log10 Conc. (nM) 3.70, 4 days): -7.82% and -0.67% and -1.06%
- % Growth (MCF7 cells; Log10 Conc. (nM) 4.30, 4 days): -10.31% and -1.91% and -1.69%
- % Growth (MCF7 cells; Log10 Conc. (nM) -0.52, 4 days): 95.85% and 97.88% and 93.10%

SMILES: CC1(C)CC[C@H](Nc2ncc(C(F)(F)F)c(-c3c[nH]c4c(P(C)(C)=O)c(C#N)ccc34)n2)CN1 [SY-5609]
- % Growth (22Rv1-CDK7-D97N cells; Log10 Conc. (nM) 0.09): 95.04% and 95.37%
- % Growth (22Rv1-CDK7-D97N cells; Log10 Conc. (nM) 0.69): 93.89% and 97.25%
- % Growth (22Rv1-CDK7-D97N cells; Log10 Conc. (nM) 1.29): 85.36% and 88.43%
- % Growth (22Rv1-CDK7-D97N cells; Log10 Conc. (nM) 1.89): 88.25% and 90.69%
- % Growth (22Rv1-CDK7-D97N cells; Log10 Conc. (nM) 2.49): 93.92% and 88.27%
- % Growth (22Rv1-CDK7-D97N cells; Log10 Conc. (nM) 3.10): 65.35% and 66.63%
- % Growth (22Rv1-CDK7-D97N cells; Log10 Conc. (nM) 3.70): 34.13% and 30.83%
- % Growth (22Rv1-CDK7-D97N cells; Log10 Conc. (nM) -0.52): 104.35% and 94.29%
- % Growth (22Rv1-CDK7-D97N cells; Log10 Conc. (nM) -1.12): 96.98% and 94.29%
- IC50 (MCF7 cells; Homo sapiens, 96 h): 1.4 nM
- % Growth (MCF7 cells; Log10 Conc. (nM) 0.09, 4 days): 43.96% and 47.02% and 63.49% and 64.31%
- % Growth (MCF7 cells; Log10 Conc. (nM) 3.70, 4 days): -10.60% and -11.04% and -2.07% and -2.25%
- % Growth (MCF7 cells; Log10 Conc. (nM) -0.52, 4 days): 82.42% and 80.79% and 92.64% and 94.88%
- % Growth (MCF7 cells; Log10 Conc. (nM) -1.12, 4 days): 91.04% and 90.64% and 92.12% and 97.41%

SMILES: CN(C)C/C=C/C(=O)Nc1ccc(C(=O)Nc2cccc(Nc3ncc(Cl)c(-c4c[nH]c5ccccc45)n3)c2)cc1 [THZ1]
- IC50 (MCF7 cells): 153 nM
- % Growth (MCF7 cells; Log10 Conc. (nM) 0.09, 4 days): 91.30% and 94.59% and 94.55%
- % Growth (MCF7 cells; Log10 Conc. (nM) 0.69, 4 days): 87.28% and 92.52% and 92.40%
- % Growth (MCF7 cells; Log10 Conc. (nM) 1.29, 4 days): 80.95% and 90.37% and 89.19%
- % Growth (MCF7 cells; Log10 Conc. (nM) 1.89, 4 days): 64.20% and 77.72% and 79.90%
- % Growth (MCF7 cells; Log10 Conc. (nM) 3.10, 4 days): -9.63% and -1.23% and -2.34%
- % Growth (MCF7 cells; Log10 Conc. (nM) 3.70, 4 days): -9.74% and -3.96% and -4.65%
- % Growth (MCF7 cells; Log10 Conc. (nM) -0.52, 4 days): 92.77% and 97.61% and 102.10%
- % Growth (MCF7 cells; Log10 Conc. (nM) -1.12, 4 days): 92.06% and 94.91% and 96.97%

Source: PMC12528448, “Resistance to CDK7 inhibitors directed by acquired mutation of a conserved residue in cancer cells” (The EMBO Journal, 2025)
